The experiment concerns the target T1, AcCPR (Aphis citricidus, UniProt A0A346QRP0).
T1 construct: full-length ORF in pFastBac HT A, 6xHis-tagged, Sf9 cell extract (soluble supernatant; called microsomes in results)
T1 sequence (A0A346QRP0 1-681): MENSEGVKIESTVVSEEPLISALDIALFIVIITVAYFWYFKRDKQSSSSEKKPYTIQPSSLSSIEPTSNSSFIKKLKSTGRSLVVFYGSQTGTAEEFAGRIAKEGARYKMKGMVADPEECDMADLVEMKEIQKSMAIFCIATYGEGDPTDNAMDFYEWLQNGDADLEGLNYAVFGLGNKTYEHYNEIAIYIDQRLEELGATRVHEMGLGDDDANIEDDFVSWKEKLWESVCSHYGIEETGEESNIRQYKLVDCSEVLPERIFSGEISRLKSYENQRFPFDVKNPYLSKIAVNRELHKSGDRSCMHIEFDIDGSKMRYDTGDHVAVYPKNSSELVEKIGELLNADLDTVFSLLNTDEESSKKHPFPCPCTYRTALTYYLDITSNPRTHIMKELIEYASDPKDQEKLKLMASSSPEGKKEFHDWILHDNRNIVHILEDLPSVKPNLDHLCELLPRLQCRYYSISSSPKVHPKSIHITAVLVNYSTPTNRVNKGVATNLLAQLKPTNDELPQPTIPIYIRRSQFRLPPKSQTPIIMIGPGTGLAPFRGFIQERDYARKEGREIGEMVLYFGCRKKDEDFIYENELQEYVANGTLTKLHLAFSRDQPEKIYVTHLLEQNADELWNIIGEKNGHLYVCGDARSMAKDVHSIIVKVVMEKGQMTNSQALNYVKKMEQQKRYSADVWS
The experiment can be described thus: NADPH-cytochrome c reduction, absorbance at […] nm, Sf9 cell extract. As to conditions: cytochrome c as electron acceptor, 0.3 M potassium phosphate pH 7.7; NADPH 2 uL of 10 mM stock in 200 uL. It counts as biochemical.

With `NC(=O)C1=CN([C@@H]2O[C@H](COP(=O)(O)OP(=O)(O)OC[C@H]3O[C@@H](n4cnc5c(N)ncnc54)[C@H](OP(=O)(O)O)[C@@H]3O)[C@@H](O)[C@H]2O)C=CC1` [NADPH], the “NADPH-cytochrome c reduction, absorbance at 550 nm, Sf9 cell extract” value is given as “Heterologously expressed AcCPR activity was determined by spectrophotometric measurement of the activity of NADPH-cytochrome-c reduction”.

These data come from paper PMC6104490, “NADPH–Cytochrome P450 Reductase Mediates the Resistance of Aphis (Toxoptera) citricidus (Kirkaldy) to Abamectin” (Frontiers in Physiology, 2018).
